ChEMBL document CHEMBL1143791, “Synthesis of isonicotinoylhydrazones from anacardic acid and their in vitro activity against Mycobacterium smegmatis” (2007)
Converted amounts (≈) assume the structure as drawn. The source made the active and inactive calls. The rule behind the calls is not given here.

Columns and labels:
[1] = system: Mycolicibacterium smegmatis; experiment: Antimicrobial activity against Mycobacterium smegmatis str. MC2 155 after 24 hrs by broth dilution method; format: functional; details: str. MC2 155, 24 h
[2] = system: Mycolicibacterium smegmatis; experiment: Antimicrobial activity against Mycobacterium smegmatis str. MC2 155 after 24 hrs at 1 ug/ml by broth dilution method; format: functional
[3] = system: Mycobacterium tuberculosis; experiment: Antimicrobial activity against Mycobacterium tuberculosis H37Rv at 0.5 ug/ml after 6 weeks; format: functional, organism-based
[4] = system: Mycobacterium tuberculosis; experiment: Antimicrobial activity against Mycobacterium tuberculosis H37Rv at 10 ug/ml after 6 weeks; format: functional, organism-based
[5] = system: Mycolicibacterium smegmatis; experiment: Antimicrobial activity against Mycobacterium smegmatis mc2 155 after 24 hrs at 0.5 ug/ml by broth dilution method; format: functional, organism-based; details: str. MC2 155
[6] = system: Mycolicibacterium smegmatis; experiment: Antimicrobial activity against Mycobacterium smegmatis str. MC2 155 after 24 hrs at 100 ug/ml by broth dilution method; format: functional, organism-based

| SMILES | MIC [1] | Activity [2] | Activity [3] | Activity [4] | Activity [5] | Activity [6] |
| --- | --- | --- | --- | --- | --- | --- |
| NNC(=O)c1ccncc1 [ISONIAZID] | 1.5 µg/mL (≈ 10.9 µM) | 36% |  |  |  |  |
| O=C(N/N=C/CCCCCCCc1c([N+](=O)[O-])ccc(O)c1C(=O)O)c1ccncc1 | 5 µg/mL (≈ 11.7 µM) |  | inactive | Active | inactive |  |
| CCCCCCCCCCCCCCCc1c([N+](=O)[O-])ccc(O)c1C(=O)O |  |  |  |  |  | inactive |
| C=CC/C=C\C/C=C\CCCCCCCc1cccc(O)c1C(=O)O |  |  |  |  |  | inactive |
| O=C(N/N=C/CCCCCCCc1cccc(O)c1C(=O)O)c1ccncc1 | 4 µg/mL (≈ 10.4 µM) |  | inactive | Active | inactive |  |
